The results in this text go back to patent US9371342B2, “Isoprene oligomer, polyisoprene, processes for producing these materials, rubber composition, and pneumatic tire” (priority 2010, dated 2016).

The target in experiment [1] is T1, variant enzyme N31A of undecaprenyl diphosphate synthase (Micrococcus luteus, UniProt O82827, N31A).
T1 construct: made in house; host or cells: E. coli; site-directed mutagenesis of pET22b/MLU-UPS
Description: Relative activity of variant enzyme N31A on initiating substrates. The class given is biochemical, Micrococcus luteus B-P 26. To be noted: index, activity of wild-type enzyme on same initiating substrate as 100; 12.5 μM initiating substrate, 1 hour, 37° C. As for the experimental part:
(§1) Reaction was performed under conditions shown below using each of the initiating substrates prepared in Production Examples 1 to 11 or farnesyl diphosphate. The activity of each variant enzyme on each initiating substrate was indicated by index with the activity of the wild-type enzyme (Micrococcus luteus B-P 26-derived undecaprenyl diphosphate synthase) as 100.
(§2) After the reaction, liquid scintillation counting and TLC quantification were performed to measure the activity of each enzyme.

For experiment [2], the target named is T2, variant enzyme N77A of undecaprenyl diphosphate synthase (Micrococcus luteus, UniProt O82827, N77A).
T2 construct: made in house; host or cells: E. coli; site-directed mutagenesis of pET22b/MLU-UPS
T2 sequence (O82827 whole entry N77A): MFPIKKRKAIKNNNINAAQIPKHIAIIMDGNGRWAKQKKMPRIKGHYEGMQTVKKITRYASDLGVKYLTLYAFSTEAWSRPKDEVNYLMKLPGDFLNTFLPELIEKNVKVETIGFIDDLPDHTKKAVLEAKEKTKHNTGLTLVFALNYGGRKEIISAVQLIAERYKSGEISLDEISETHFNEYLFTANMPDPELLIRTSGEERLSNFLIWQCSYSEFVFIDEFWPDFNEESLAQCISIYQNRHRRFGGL
Kind of experiment: Relative activity of variant enzyme N77A on initiating substrates. The format is biochemical, Micrococcus luteus B-P 26. To be noted: index, activity of wild-type enzyme on same initiating substrate as 100; 12.5 μM initiating substrate, 1 hour, 37° C. As for the experimental part: as §1, §2

For experiment [3], the target named is T3, variant enzyme L91N of undecaprenyl diphosphate synthase (Micrococcus luteus, UniProt O82827, L91N).
T3 construct: made in house; host or cells: E. coli; site-directed mutagenesis of pET22b/MLU-UPS
T3 sequence (O82827 whole entry L91N): as the sequence (O82827 whole entry N77A) above, with A77N, L91N counted along it
Kind of experiment: Relative activity of variant enzyme L91N on initiating substrates. The class given is biochemical, Micrococcus luteus B-P 26. As to conditions: index, activity of wild-type enzyme on same initiating substrate as 100; 12.5 μM initiating substrate, 1 hour, 37° C. As for the experimental part:
as §1, §2

For experiment [4], the target named is T4, variant enzyme L91D of undecaprenyl diphosphate synthase (Micrococcus luteus, UniProt O82827, L91D).
T4 construct: made in house; host or cells: E. coli; site-directed mutagenesis of pET22b/MLU-UPS
T4 sequence (O82827 whole entry L91D): as the sequence (O82827 whole entry N77A) above, with A77N, L91D counted along it
Description: Relative activity of variant enzyme L91D on initiating substrates. The class given is biochemical, Micrococcus luteus B-P 26. To be noted: index, activity of wild-type enzyme on same initiating substrate as 100; 12.5 μM initiating substrate, 1 hour, 37° C. As for the experimental part: as §1, §2

In experiment [5] the target is T5, variant enzyme N31Q of undecaprenyl diphosphate synthase (Micrococcus luteus, UniProt O82827, N31Q).
T5 construct: made in house; host or cells: E. coli; site-directed mutagenesis of pET22b/MLU-UPS
T5 sequence (O82827 whole entry N31Q): as the sequence (O82827 whole entry N77A) above, with N31Q, A77N counted along it
Description: Relative activity of variant enzyme N31Q on initiating substrates. The class given is biochemical, Micrococcus luteus B-P 26. To be noted: index, activity of wild-type enzyme on same initiating substrate as 100; 12.5 μM initiating substrate, 1 hour, 37° C. As for the experimental part: as §1, §2

In experiment [6] the target is T6, variant enzyme N77Q of undecaprenyl diphosphate synthase (Micrococcus luteus, UniProt O82827, N77Q).
T6 construct: made in house; host or cells: E. coli; site-directed mutagenesis of pET22b/MLU-UPS
T6 sequence (O82827 whole entry N77Q): as the sequence (O82827 whole entry N77A) above, with A77Q counted along it
Description: Relative activity of variant enzyme N77Q on initiating substrates. The class given is biochemical, Micrococcus luteus B-P 26. To be noted: index, activity of wild-type enzyme on same initiating substrate as 100; 12.5 μM initiating substrate, 1 hour, 37° C. As for the experimental part: as §1, §2

The target in experiment [7] is T7, variant enzyme L91G of undecaprenyl diphosphate synthase (Micrococcus luteus, UniProt O82827, L91G).
T7 construct: made in house; host or cells: E. coli; site-directed mutagenesis of pET22b/MLU-UPS
T7 sequence (O82827 whole entry L91G): as the sequence (O82827 whole entry N77A) above, with A77N, L91G counted along it
Description: Relative activity of variant enzyme L91G on initiating substrates. As to conditions: index, activity of wild-type enzyme on same initiating substrate as 100; 12.5 μM initiating substrate, 1 hour, 37° C. The format is biochemical, Micrococcus luteus B-P 26. As for the experimental part:
as §1, §2

Experiment [8] concerns the target T8, variant enzyme L91K of undecaprenyl diphosphate synthase (Micrococcus luteus, UniProt O82827, L91K).
T8 construct: made in house; host or cells: E. coli; site-directed mutagenesis of pET22b/MLU-UPS
Description: Relative activity of variant enzyme L91K on initiating substrates. To be noted: index, activity of wild-type enzyme on same initiating substrate as 100; 12.5 μM initiating substrate, 1 hour, 37° C. The format is biochemical, Micrococcus luteus B-P 26. As for the experimental part: as §1, §2

For experiment [9], the target named is T9, variant enzyme F95W of undecaprenyl diphosphate synthase (Micrococcus luteus, UniProt O82827, F95W).
T9 construct: made in house; host or cells: E. coli; site-directed mutagenesis of pET22b/MLU-UPS
T9 sequence (O82827 whole entry F95W): as the sequence (O82827 whole entry N77A) above, with A77N, F95W counted along it
Kind of experiment: Relative activity of variant enzyme F95W on initiating substrates. The class given is biochemical, Micrococcus luteus B-P 26. As to conditions: index, activity of wild-type enzyme on same initiating substrate as 100; 12.5 μM initiating substrate, 1 hour, 37° C. As for the experimental part: as §1, §2

For experiment [10], the target named is T10, variant enzyme F95A of undecaprenyl diphosphate synthase (Micrococcus luteus, UniProt O82827, F95A).
T10 construct: made in house; host or cells: E. coli; site-directed mutagenesis of pET22b/MLU-UPS
T10 sequence (O82827 whole entry F95A): as the sequence (O82827 whole entry N77A) above, with A77N, F95A counted along it
Kind of experiment: Relative activity of variant enzyme F95A on initiating substrates. The format is biochemical, Micrococcus luteus B-P 26. As to conditions: index, activity of wild-type enzyme on same initiating substrate as 100; 12.5 μM initiating substrate, 1 hour, 37° C. As for the experimental part:
as §1, §2

Experiment [11] deals with T11, Micrococcus luteus B-P 26-derived undecaprenyl diphosphate synthase (wild-type enzyme) (Micrococcus luteus, UniProt O82827).
T11 construct: made in house; host or cells: E. coli; plasmid pET22b/MLU-UPS
T11 sequence (O82827 whole entry): as the sequence (O82827 whole entry N77A) above, with A77N counted along it
Description: Relative activity of wild-type undecaprenyl diphosphate synthase on initiating substrates. To be noted: activity of the enzyme on farnesyl diphosphate as 100; 12.5 μM initiating substrate, pH 7.5, 1 hour, 37° C. The format is biochemical. As for the experimental part: as §1, §2
Next, reaction was performed under conditions shown below using Micrococcus luteus B-P 26-derived undecaprenyl diphosphate synthase as an enzyme and each of the initiating substrates 1 to 4, the compound represented by the formula (B), the compound represented by the formula (C), the compound represented by the formula (G), the compound represented by the formula (K), and farnesyl diphosphate (FPP). The results were indicated in Table 10 by the relative activity of the enzyme on the initiating substrates 1 to 4, the compound represented by the formula (B), the compound represented by the formula (C), the compound represented by the formula (G), and the compound represented by the formula (K) with the activity of the enzyme on farnesyl diphosphate as 100.
(§3) After the reaction, liquid scintillation counting and TLC quantification were performed to measure the activity of the enzyme on each initiating substrate.

Experiment [12] has as its target T12, Bacillus stearothermophilus-derived farnesyl diphosphate synthase (Geobacillus stearothermophilus, UniProt Q08291).
T12 construct: made in house; host or cells: E. coli BL21 (DE3)
Description: Relative activity of farnesyl diphosphate synthase on initiating substrates. The class given is biochemical. As to conditions: activity of the enzyme on geranyl diphosphate as 100; 12.5 μM initiating substrate, pH 8.5, 1 hour, 55° C. As for the experimental part:
Reaction was performed under conditions shown below using the obtained Bacillus stearothermophilus-derived farnesyl diphosphate synthase and each of the initiating substrates 1 to 4, the compound represented by the formula (F), the compound represented by the formula (I), the compound represented by the formula (QO), and geranyl diphosphate (GPP) whose structure is shown below. The results were indicated in Table 11 by the relative activity of the enzyme on the initiating substrates 1 to 4, the compound represented by the formula (F), the compound represented by the formula (I), and the compound represented by the formula (Q) with the activity of the enzyme on geranyl diphosphate as 100.
as §3

The target in experiment [13] is T13, Sulfolobus acidocaldarius-derived geranylgeranyl diphosphate synthase (Sulfolobus acidocaldarius, UniProt P39464).
T13 construct: made in house; host or cells: E. coli BL21 (DE3)
T13 sequence (P39464 whole entry): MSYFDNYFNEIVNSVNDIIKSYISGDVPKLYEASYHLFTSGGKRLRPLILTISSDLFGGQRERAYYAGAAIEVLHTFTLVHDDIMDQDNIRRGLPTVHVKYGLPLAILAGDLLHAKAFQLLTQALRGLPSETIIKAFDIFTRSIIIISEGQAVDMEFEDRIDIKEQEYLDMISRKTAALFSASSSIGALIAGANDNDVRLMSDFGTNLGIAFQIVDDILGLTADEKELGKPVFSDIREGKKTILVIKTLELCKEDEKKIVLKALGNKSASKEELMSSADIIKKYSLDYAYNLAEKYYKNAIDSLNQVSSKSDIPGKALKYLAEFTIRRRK
Description: Relative activity of geranylgeranyl diphosphate synthase on initiating substrates. The class given is biochemical. To be noted: 12.5 μM initiating substrate, pH 5.8, 1 hour, 55° C. As for the experimental part: Likewise, reaction was performed under conditions shown below using Sulfolobus acidocaldarius-derived geranylgeranyl diphosphate synthase and each of the initiating substrates 1 to 4, the compound represented by the formula (B), the compound represented by the formula (C), the compound represented by the formula (G), the compound represented by the formula (K), the compound represented by the formula (F), the compound represented by the formula (I), the compound represented by the formula (Q), farnesyl diphosphate (FPP), and geranyl diphosphate (GPP). The results were indicated in Tables 12 and 13 by the relative activity of the enzyme on the initiating substrates 1 to 4, the compound represented by the formula (B), the compound represented by the formula (C), the compound represented by the formula (G), the compound represented by the formula (K), the compound represented by the formula (F), the compound represented by the formula (I), and the compound represented by the formula (QO) with the activity of the enzyme on farnesyl diphosphate or geranyl diphosphate as 100.
as §3

The mark [14] stands for this setting: activity of the enzyme on farnesyl diphosphate as 100.
Where [15] appears, read: activity of the enzyme on geranyl diphosphate as 100.

T12 sequence (Q08291 whole entry): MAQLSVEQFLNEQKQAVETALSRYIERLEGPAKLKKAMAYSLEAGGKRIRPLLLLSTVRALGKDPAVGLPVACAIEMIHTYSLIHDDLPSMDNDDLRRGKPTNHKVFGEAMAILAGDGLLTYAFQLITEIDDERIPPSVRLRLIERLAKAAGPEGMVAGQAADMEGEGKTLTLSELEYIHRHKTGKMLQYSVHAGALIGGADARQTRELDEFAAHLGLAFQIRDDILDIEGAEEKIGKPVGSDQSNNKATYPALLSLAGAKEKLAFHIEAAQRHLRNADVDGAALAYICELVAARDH
T8 sequence (O82827 whole entry L91K): as the sequence (O82827 whole entry N77A) above, with A77N, L91K counted along it
T1 sequence (O82827 whole entry N31A): as the sequence (O82827 whole entry N77A) above, with N31A, A77N counted along it

For `CC[C@H](O)CC/C(C)=C/CC/C(C)=C/COP(=O)(O)OP(=O)(O)O` [Compound of formula (D), (10S)-hydroxy-3,7-dimethyl-dodeca-(2E,6E)-dienyl diphosphate], the Relative activity is on record as 179 in experiment [1]; 208 in experiment [2]; 103 in experiment [3]; 125 in [4]; 104 in [5]; 124 in [6]. The results for the Relative activity in experiment [7], in experiment [8] and in [9] were 134, 101 and 120, respectively.

On to `CC[C@@H](O)CC/C(C)=C/CC/C(C)=C/COP(=O)(O)OP(=O)(O)O` [Compound of formula (E), (10R)-hydroxy-3,7-dimethyl-dodeca-(2E,6E)-dienyl diphosphate], for which the Relative activity in experiment [1] worked out at 222; in experiment [2] it was 396; in [3], 271; in [4] it was 320; in experiment [5], 210; in experiment [6] it was 194. Also, the Relative activity stood at 170 in [7], 163 in experiment [8], 120 in [10] and 114 in experiment [9].

With `CCC(O)CC/C(C)=C/CC/C(C)=C/COP(=O)(O)OP(=O)(O)O` [Compound of formula (R), 10-hydroxy-3,7-dimethyl-dodeca-(2E,6E)-dienyl diphosphate], the Relative activity in experiment [1] is recorded as 200; in experiment [2], 254; in experiment [3] it was 137; in [4] it was 230; in experiment [5], 146; in experiment [6], 156. The Relative activity in experiment [7] is reported as 110; in experiment [8] it was 165; in experiment [10], 140; in [9] it was 121.

`C/C=C/COP(=O)(O)OP(=O)(O)O` [Initiating substrate 1, 2E-butenyl diphosphate]: the “Relative activity (%)” value is 0.3% in experiment [11], 1.4% in [12], 2.3% in experiment [13] (setting [14]) and 0.4% in [13] (setting [15]).

Take `CC(C)=CCC/C=C/COP(=O)(O)OP(=O)(O)O` [Initiating substrate 2, 7-methyl-octa-2E,6E-dienyl diphosphate]: the “Relative activity (%)” value in experiment [11] turned out to be 0.6%; in experiment [12], 3.2%; in [13] (setting [14]), 2.5%; in experiment [13] (setting [15]), 0.4%.

Consider `CC(C)=CCC/C(C)=C/CC/C=C/COP(=O)(O)OP(=O)(O)O` [Initiating substrate 3, 7,11-dimethyl-dodeca-2E,6E,10E-trienyl diphosphate], for which the “Relative activity (%)” value in experiment [11] amounted to 1.2%; in experiment [12], 2.1%; in experiment [13] (setting [14]), 3.9%; in experiment [13] (setting [15]), 0.6%.

With `CC(C)=CCC/C(C)=C/CC/C(C)=C/CC/C=C/COP(=O)(O)OP(=O)(O)O` [Initiating substrate 4, 7,11,15-trimethyl-hexadeca-2E,6E,10E,14E-tetraenyl diphosphate], the “Relative activity (%)” value in [11] amounted to 5.9%; in experiment [12], 0.7%; in [13] (setting [14]) it was 1.4%; in [13] (setting [15]), 0.8%.
